Structures are written as SMILES. Marks after values point to notes of the source that are not given here.

Assay type in all cases: in vivo, female Crl:NMRI mice
The test system of series [1] is sebaceous glands. The series is described as follows: Topical LCF369 on sebaceous glands of NMRI mice: duration of action. The procedure:
(§1) LCF369 is prepared either in a solution of ethanol/propylene glycol (3/7, v/v) or in topical formulations at 1.0, 0.5 or 0.1% for testing in female Crl:NMRI mice. In general, shaved application sites of approximately 2.5 cm^2 on the back of mice are treated twice daily (once on weekends or at study termination) with 50 μl of the LCF369 preparations. To prevent the animals from potential oral uptake of the epicutaneously applied compounds, they are fitted with ruffs and housed individually. After the last application, the animals are euthanised; the treated sites dissected and prepared for histological sections. Hematoxilin/eosin (HE)-stained 3 μm-thick sections are prepared from formalin-fixed, paraffin-embedded tissue. […] The entire sections of approximately 10 mm length are evaluated microscopically (200×) for sebaceous glands. The mean size and mean number (per mm^2 dermis) of sectioned alveolar units of the sebaceous glands are determined in a coded fashion with an image analyzer (Axiovision, Zeiss). For statistical analysis, morphometric data are analyzed with a T-test or Mann-Whitney rank sum test. […]
A 7-day b.i.d. (twice daily) treatment schedule (except on week ends when the animals were treated once daily) with 1.0% LCF369 is applied to groups of 7 mice which are evaluated on days 8 (one day after the 14th application), 24 and 41. […]

The subject of series [2] is sebaceous glands. The series is described as follows: Topical LCF369 on sebaceous glands of NMRI mice: clinical service form candidates (0.5% formulations). The method, then: as §1, with “sections.” for “sections. Hematoxilin/eosin (HE)-stained 3 μm-thick sections are prepared from formalin-fixed, paraffin-embedded tissue.”
Three different formulations containing 0.5% LCF369 are tested; i) emulsion gel with the penetration enhancer Sepa 09 (batch 92.66.01-ra), ii) emulsion gel without a penetration enhancer (batch 9450-05-Ra), and iii) a formulation containing particulate compound (“follicular targeting formulation”). They are evaluated after 9 or 13 applications.

The test system of series [3] is sebaceous glands. The series is described as follows: Topical LCF369 on sebaceous glands of NMRI mice: minimal effective concentration. Conditions: LCF369 1.0% (w/v) twice daily, 7 days, mean (SD), 6 animals. The method, then: (§2) LCF369 is prepared either in a solution of ethanol/propylene glycol (3/7, v/v) or in topical formulations at 1.0, 0.5 or 0.1% for testing in female Crl:NMRI mice. In general, shaved application sites of approximately 2.5 cm^2 on the back of mice are treated twice daily (once on weekends or at study termination) with 50 μl of the LCF369 preparations. To prevent the animals from potential oral uptake of the epicutaneously applied compounds, they are fitted with ruffs and housed individually. After the last application, the animals are euthanised; the treated sites dissected and prepared for histological sections. Hematoxilin/eosin (HE)-stained 3 μm-thick sections are prepared from formalin-fixed, paraffin-embedded tissue. From each animal, one HE-stained section per site is histomorphometrically examined. The entire sections of approximately 10 mm length are evaluated microscopically (200×) for sebaceous glands. The mean size and mean number (per mm^2 dermis) of sectioned alveolar units of the sebaceous glands are determined in a coded fashion with an image analyzer (Axiovision, Zeiss). For statistical analysis, morphometric data are analyzed with a T-test or Mann-Whitney rank sum test. Frozen tissue sections (5 μm) are used for oil red O (lipid) staining.
LCF369 is tested at 1.0%, 0.5% and 0.1%, groups of 6 mice are treated twice daily for 7 consecutive days. […]

Series [4] concerns sebaceous glands. The series is described as follows: Topical LCF369 on sebaceous glands of NMRI mice: minimal treatment period. Conditions: for mean size decrease: 1.0% LCF369 twice daily, vs vehicle. The procedure:
as §2
Groups of 4 mice are treated with 1.0% LCF369 twice daily for 2, 4, 6 and 8 days (i.e. up to 16 applications). Control groups remain untreated or are treated with the vehicle alone twice daily for 8 days.

Series [5] has as its system sebaceous glands. The series is described as follows: Topical LCF369 on sebaceous glands of NMRI mice: evaluation of efficacy. The procedure: as §2
Groups of 5 mice are treated with 50 μl of 1% or 0.1% LCF369 twice daily (except on weekends, when the animals are treated once daily and on study termination) for 8 days (i.e. 14 applications in total). Four control animals are treated similarly with the vehicle alone. In life, the animals are observed for clinical signs and macroscopic changes of the application sites. One day after the last application, an evaluation is performed. In animals treated with 1.0% LCF369, untreated skin samples distant from the treated sites are also collected in order to assess systemic activity due to percutaneous absorption of LCF369.

Setting [6] is: LCF369-treated vs vehicle-treated skin.

For `O=C(NCCC1CC1)c1ccc(N2CCN(C(=O)c3cc(F)ccc3C(F)(F)F)CC2)nn1` [LCF369, 6-[4-(5-Fluoro-2-trifluoromethylbenzoyl)piperazin-1-yl]pyridazine-3-carboxylic acid (2-cyclopropylethyl)amide], the “atrophogenic effect from LCF369 treatment” value was “substantially reduced” in series [1] (1% LCF369, on day 24) and “almost completely absent” in series [1] (1% LCF369, on day 41). Further, the “hyper/parakeratosis and acanthosis in skin sections” value in series [2] (0.5% LCF369 formulation containing SEPA-9 vs placebo-treated (vehicle-treated) samples) was “more pronounced”. Further, the “effect on sebaceous glands” value in series [2] (0.5% LCF369 formulation containing penetration enhancer SEPA-9) is reported as “significant atrophy of sebaceous glands”. For the same compound, the “Number of sebaceous glandular units” value in series [3] is reported as 10.1 (4.0)*** per mm^2 dermis. In addition, the mean size decrease in series [4] (after 4 days) is on record as 35%; in series [4] (after 6 days), 35%; in series [4] (after 8 days), 72%. Moreover, the “Maximum reduction in sizes and numbers of sebaceous glands” value in series [4] (topical application, compared to untreated skin) is given as “up to 75%”. Besides, the atrophogenic effects entry in series [5] (0.1% LCF369, 8 days) is “little or no atrophogenic effects”. The “reduction of sebaceous glands in sizes (fold)” value in series [5] (1.0% LCF369, 8 days, p<0.01) is “about 1.9 fold”. The “differences in numbers and sizes of sebaceous glands at sites distant from the treatments” value in series [5] (1.0% LCF369, distant sites) was “no significant differences”. In addition, the “histochemical (HE) staining of treated skin, FIG. 2B” value in series [5] (setting [6]) is “fewer and smaller (atrophic) sebaceous glands”. In addition, the “oil red O (lipid) staining of treated skin, FIG. 3B” value in series [5] (setting [6]) is listed as “significantly reduced lipids associated with hair shafts”.

Source of the values: patent US7964591B2, “Pyridazine derivatives and their use as therapeutic agents” (Novartis Pharma AG, priority 2003, dated 2011).
